Experimental data taken from patent US7015345B2, “Propionic acid derivatives” (Asahi Kasei Pharma Corporation, priority 2002, dated 2006).
Read-outs that look alike come from different tables or passages of the source.

Tests used:
db/db mice = test: Hypoglycemic action and triglyceride-decreasing action in db/db mice; format: in vivo; details: Mus musculus, 360 h; for inhibition in vivo at 10 mg/kg: 10 mg/kg oral once a day for 2 weeks; for inhibition in vivo at 1 mg/kg: 1 mg/kg oral once a day for 2 weeks; for inhibition in vivo at 3 mg/kg: 3 mg/kg oral once a day for 2 weeks
Experimental: Test for Measuring Hypoglycemic Action and Triglyceride-Decreasing Action in db/db Mice
Each of test compounds was administered once a day for 2 weeks to db/db mice genetically presenting pathological conditions of obesity, hyperglycemia, and hyperlipidemia. Blood was collected from the mice immediately before the start of administration of a test sample or a vehicle on the first day. Plasma glucose levels and triglyceride levels were measured, and the mice were divided into groups so that average glucose levels and triglyceride levels gave no significant value among the groups. All the test samples were suspended in a 0.5% methylcellulose (MC) solution and orally administered. For a vehicle-administered control group, a 0.5% MC solution was orally administered. Blood samples were collected from the mice on the 15th day, and plasma glucose levels and triglyceride levels were measured. A hypoglycemic rate and triglyceride-reducing rate were calculated by using the following equations.

[1] = test system: hamsters fed with high cholesterol diet; test: Total plasma cholesterol and non-HDL cholesterol reducing action in hamster fed high cholesterol diet; format: in vivo; details: Mesocricetus auratus, 192 h, hamsters on high cholesterol diet, 10 mg/kg oral once a day for one week, plasma on 8th day
Experimental: Test for Measuring Total Plasma Cholesterol Reducing Action and Non-HDL Cholesterol (VLDL Cholesterol+LDL Cholesterol) Reducing Action in Hamster
A test compound (10 mg/kg) was administered once a day for one week to hamsters fed with high cholesterol diet (CE-2 (Clea Japan)+1% cholesterol+10% coconut oil) for five days. The plasma cholesterol level and the plasma HDL cholesterol level were measured immediately before the start of the administration of the test sample or vehicle on the 1st day, and the hamsters were divided into groups so that the groups gave no significant value of initial levels of the both measurements. Each of the test samples was dissolved in a 0.5% methylcellulose (MC) solution and orally administered. A 0.5% methylcellulose (MC) solution was orally administered to the hamsters as a vehicle control group. A blood sample was collected on the 8th day, and the plasma cholesterol level and the plasma HDL cholesterol level were measured. The total cholesterol reducing rate was obtained by using the following equation. [formula]
Further, non-HDL cholesterol level (LDL cholesterol level+VLDL cholesterol level) was calculated as (Total cholesterol level−HDL cholesterol level), and the reducing rate thereof was calculated by using the following equation. [formula]

Zucker rats = test: Liver triglyceride contents in Zucker rats; format: in vivo; details: Rattus norvegicus, 336 h, read-out: Triglyceride reducing rate (%); for inhibition in vivo at 1 mg/kg: 1 mg/kg once a day for 2 weeks
Experimental: Measurement of Liver Triglyceride Contents in Zucker Rats
To Zucker rats, a vehicle (0.5% MC), a compound of the present invention or fenofibrate (Sigma) was administered once a day for 2 weeks. The livers were isolated on the next day of the final administration, and amounts of triglyceride in the livers were determined. Triglyceride was extracted by adding 5 ml of a mixture of hexane and isopropanol (2:1, V/V) to 100 mg of liver, homogenizing the liver using Polytron homogenizer, then sufficiently stirring and centrifuging the homogenate at 2000 g for 10 minutes at room temperature. The amount of triglyceride in the solution layer was measured.

[2] = test system: 3T3-L1 precursor adipocytes; test: Uptake of glucose by adipocytes ([3H]-2-deoxy-glucose uptake); format: cell-based; details: Mus musculus, 100 nM compound, 4 to 5 days culture, 100 nM insulin stimulation, relative to 10 μM rosiglitazone taken as 100%, read-out: Amount of glucose uptake (%)
Experimental: (§1) Test for Uptake of Glucose By Adipocytes and Test for Triglyceride Accumulation in Adipocytes
According to the method of Mukherjee et al. (Mol. Endocrinol, 14, 1425–1433, 2000), a glucose uptake experiment was performed by using cultured cells. 3T3-L1 precursor adipocytes were cultured for 4 to 5 days in the presence of a test compound, and then stimulated with 100 nM insulin, and then the amount of [^3H]-2-deoxy-glucose (2DG) uptake by the cells was measured. The amount of glucose uptake provided after the treatment with 100 nM of each compound was measured, and represented as a relative value based on the amount of glucose uptake provided after the treatment with 10 μM rosiglitazone, which was taken as 100%.

[3] = test system: 3T3-L1 precursor adipocytes; test: Triglyceride accumulation in adipocytes; format: cell-based; details: Mus musculus, 100 nM compound, 4 to 5 days culture, relative to 10 μM rosiglitazone taken as 100%, read-out: Amount of accumulated triglyceride (%)
Experimental: as §1
Further, 3T3-L1 precursor adipocytes were cultured for 4 to 5 days in the presence of a test compound, and then the amount of triglyceride in the cells was measured according to the method of Shibata T et al. (Eur. J. Pharmacol., 364 (2–3), 211–219, 1999). The amount of accumulated triglyceride provided after the treatment with 100 nM of each compound was measured, and represented as a relative value based on the amount of accumulated triglyceride provided after the treatment with 10 μM rosiglitazone, which was taken as 100%.

[4] = plasma glucose on 15th day vs vehicle, read-out: Hypoglycemic rate (%)
[5] = plasma triglyceride on 15th day vs vehicle, read-out: Triglyceride reducing rate (%)
[6] = non-HDL = total cholesterol - HDL cholesterol, read-out: Non-HDL cholesterol reducing rate (%)
[7] = read-out: Total cholesterol reducing rate (%)

Row | Compound | inhibition in vivo at 10 mg/kg (db/db mice; [4]) [%] | inhibition in vivo at 10 mg/kg (db/db mice; [5]) [%] | inhibition in vivo at 10 mg/kg [1, 6] [%] | inhibition in vivo at 10 mg/kg [1, 7] [%] | inhibition in vivo at 10 mg/kg (Zucker rats; 10 mg/kg once a day for 2 weeks) [%] | Emax at 0.1 µM [2] [%] | Emax at 0.1 µM [3] [%] | inhibition in vivo at 1 mg/kg (db/db mice; [4]) [%] | inhibition in vivo at 1 mg/kg (db/db mice; [5]) [%] | inhibition in vivo at 1 mg/kg (Zucker rats) [%] | inhibition in vivo at 3 mg/kg (db/db mice; [4]) [%] | inhibition in vivo at 3 mg/kg (db/db mice; [5]) [%]
1 | CCCCCCCN(CCOc1ccc(CC(OCC)C(=O)O)cc1)C(=O)Nc1ccc(F)cc1F (centres unmarked) [Example 2, 3-(4-{2-[3-(2,4-difluorophenyl)-1-heptylureido]ethoxy}phenyl)-2-ethoxypropionic acid] | 34 | 53 | 29 | 30 | 19 | 95 | 90 | – | – | – | – | –
2 | CCCCCCCN(CCOc1ccc(CC(OCCC)C(=O)O)cc1)C(=O)OC (centres unmarked) [Example 120, 3-{4-[2-(N-heptyl-N-methoxycarbonylamino)ethoxy]phenyl}-2-propoxypropionic acid] | – | – | 25 | 28 | – | 90 | 88 | 39 | 48 | 28 | – | –
3 | CCCCCCCN(CCOc1ccc(CC(OCC)C(=O)O)cc1)C(=O)OCC(C)C (centres unmarked) [Example 71, 2-ethoxy-3-{4-[2-(N-heptyl-N-isobutyloxycarbonylamino)ethoxy]phenyl}propionic acid] | – | – | 10 | 12 | – | 83 | 85 | 28 | 40 | 28 | – | –
4 | CCCCCCCN(CCOc1ccc(CC(OCC)C(=O)OCC)cc1)C(=O)OCC(F)(F)F (centres unmarked) [Example 96, 2-ethoxy-3-(4-{2-[N-heptyl-N-(2,2,2-trifluoroethoxycarbonyl)amino]ethoxy}phenyl)propionic acid ethyl ester] | – | – | 23 | 24 | – | 85 | 80 | – | – | 39 | 38 | 31
5 | CCCCOCCN(CCOc1ccc(CC(OCC)C(=O)O)cc1)C(=O)OCC(C)C (centres unmarked) [Example 123, 3-(4-{2-[N-(2-butoxyethyl)-N-isobutoxycarbonylamino]ethoxy}phenyl)-2-ethoxypropionic acid] | – | – | 25 | 25 | – | 99 | 96 | – | – | 35 | 8 | 32
